# Assay results from ChEMBL document CHEMBL1201862, “PubChem BioAssay data set” (2004).
#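 Test compounds were applied to cells in 96-well plates for 48 hours at 5 doses. GI50 is the concentration that inhibits growth by half.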 Activity calls are given as the source filed them. No stated cut-off is given here; in the data, active = GI50 up to about 1.1 µM and inactive = higher.
# Columns and labels:
# Experiment in all cases: NCI-60 cell line screen, 48 h
# 786-0 = tested on: 786-0
# A498 = tested on: A498
# A549 = tested on: A549
# ACHN = tested on: ACHN
# BT-549 = tested on: BT-549
# CAKI-1 = tested on: CAKI-1
# CCRF-CEM = tested on: CCRF-CEM
# COLO 205 = tested on: COLO 205
# DLD-1 = tested on: DLD-1
# DMS-114 = tested on: DMS-114
# DMS-273 = tested on: DMS-273
# DU-145 = tested on: DU-145
# EKVX = tested on: EKVX
# HCC 2998 = tested on: HCC 2998
# HCT-116 = tested on: HCT-116
# HCT-15 = tested on: HCT-15
# HL-60 = tested on: HL-60
# HOP-18 = tested on: HOP-18
# HOP-62 = tested on: HOP-62
# HOP-92 = tested on: HOP-92
# HT-29 = tested on: HT-29
# Hs-578T = tested on: Hs-578T
# IGROV-1 = tested on: IGROV-1
# K562 = tested on: K562
# KM-20L2 = tested on: KM-20L2
# KM12 = tested on: KM12
# LOX IMVI = tested on: LOX IMVI
# LXFL 529 = tested on: LXFL 529
# M14 = tested on: M14
# M19-MEL = tested on: M19-MEL
# MCF7 = tested on: MCF7
# MDA-MB-231 = tested on: MDA-MB-231
# MDA-MB-435 = tested on: MDA-MB-435
# MDA-N = tested on: MDA-N
# MOLT-4 = tested on: MOLT-4
# Malme-3M = tested on: Malme-3M
# NCI-H226 = tested on: NCI-H226
# NCI-H23 = tested on: NCI-H23
# NCI-H460 = tested on: NCI-H460
# NCI-H522 = tested on: NCI-H522
# NCI/ADR-RES = tested on: NCI/ADR-RES
# OVCAR-3 = tested on: OVCAR-3
# OVCAR-4 = tested on: OVCAR-4
# OVCAR-5 = tested on: OVCAR-5
# OVCAR-8 = tested on: OVCAR-8
# PC-3 = tested on: PC-3
# RPMI-8226 = tested on: RPMI-8226
# RXF 393 = tested on: RXF 393
# RXF 631 = tested on: RXF 631
# SF-268 = tested on: SF-268
# SF-295 = tested on: SF-295
# SF-539 = tested on: SF-539
# SK-MEL-28 = tested on: SK-MEL-28
# SK-MEL-2 = tested on: SK-MEL-2
# SK-MEL-5 = tested on: SK-MEL-5
# SK-OV-3 = tested on: SK-OV-3
# SN12C = tested on: SN12C
# SNB-19 = tested on: SNB-19
# SNB-75 = tested on: SNB-75
# SNB-78 = tested on: SNB-78
# SR = tested on: SR
# SW-620 = tested on: SW-620
# T47D = tested on: T47D
# TK-10 = tested on: TK-10
# U-251 = tested on: U-251
# UACC-257 = tested on: UACC-257
# UACC-62 = tested on: UACC-62
# UO-31 = tested on: UO-31
# XF498 = tested on: XF498
compound,measurement,setting,value
COc1ccc(NC(=O)CC(=O)n2nc(-c3ccccc3)c(/N=N/c3ccc(C)cc3)c2-c2ccccc2)cc1,GI50,786-0,19.2 µM (inactive)
same,GI50,A498,> 49.3 µM (inactive)
same,GI50,A549,44 µM (inactive)
same,GI50,ACHN,32.5 µM (inactive)
same,GI50,BT-549,21.2 µM (inactive)
same,GI50,CAKI-1,55.3 µM (inactive)
same,GI50,CCRF-CEM,> 84.7 µM (inactive)
same,GI50,COLO 205,> 100 µM (inactive)
same,GI50,DLD-1,> 79.3 µM (inactive)
same,GI50,DMS-114,> 49.5 µM (inactive)
same,GI50,DMS-273,33.3 µM (inactive)
same,GI50,DU-145,> 59.7 µM (inactive)
same,GI50,EKVX,21.8 µM (inactive)
same,GI50,HCC 2998,62.8 µM (inactive)
same,GI50,HCT-116,34.1 µM (inactive)
same,GI50,HCT-15,> 100 µM
same,GI50,HL-60,> 100 µM (inactive)
same,GI50,HOP-18,24.3 µM (inactive)
same,GI50,HOP-62,10.4 µM (inactive)
same,GI50,HOP-92,16.8 µM (inactive)
same,GI50,HT-29,> 88.3 µM (inactive)
same,GI50,Hs-578T,16.6 µM (inactive)
same,GI50,IGROV-1,16.9 µM (inactive)
same,GI50,K562,> 85.3 µM (inactive)
same,GI50,KM-20L2,> 78.2 µM (inactive)
same,GI50,KM12,65.6 µM (inactive)
same,GI50,LOX IMVI,38.8 µM (inactive)
same,GI50,LXFL 529,40.8 µM (inactive)
same,GI50,M14,52.6 µM (inactive)
same,GI50,M19-MEL,28.9 µM (inactive)
same,GI50,MCF7,> 52.1 µM (inactive)
same,GI50,MDA-MB-231,25.6 µM (inactive)
same,GI50,MDA-MB-435,> 100 µM (inactive)
same,GI50,MDA-N,> 100 µM (inactive)
same,GI50,MOLT-4,> 95.9 µM (inactive)
same,GI50,Malme-3M,31.5 µM (inactive)
same,GI50,NCI-H226,21.7 µM (inactive)
same,GI50,NCI-H23,28.4 µM (inactive)
same,GI50,NCI-H460,35.3 µM (inactive)
same,GI50,NCI-H522,29 µM (inactive)
same,GI50,NCI/ADR-RES,25.7 µM (inactive)
same,GI50,OVCAR-3,43 µM (inactive)
same,GI50,OVCAR-4,27.5 µM (inactive)
same,GI50,OVCAR-5,> 80 µM (inactive)
same,GI50,OVCAR-8,21.7 µM (inactive)
same,GI50,PC-3,> 41.4 µM (inactive)
same,GI50,RPMI-8226,55.7 µM (inactive)
same,GI50,RXF 393,19.1 µM (inactive)
same,GI50,RXF 631,54.5 µM (inactive)
same,GI50,SF-268,21.6 µM (inactive)
same,GI50,SF-295,23.8 µM (inactive)
same,GI50,SF-539,25.4 µM (inactive)
same,GI50,SK-MEL-28,> 91.6 µM (inactive)
same,GI50,SK-MEL-2,32.7 µM (inactive)
same,GI50,SK-MEL-5,> 65.2 µM (inactive)
same,GI50,SK-OV-3,16.4 µM (inactive)
same,GI50,SN12C,38 µM (inactive)
same,GI50,SNB-19,21.5 µM (inactive)
same,GI50,SNB-75,16.4 µM (inactive)
same,GI50,SNB-78,20.8 µM (inactive)
same,GI50,SR,47.2 µM (inactive)
same,GI50,SW-620,69.5 µM (inactive)
same,GI50,T47D,36.1 µM (inactive)
same,GI50,TK-10,36.2 µM (inactive)
same,GI50,U-251,20.8 µM (inactive)
same,GI50,UACC-257,57.8 µM (inactive)
same,GI50,UACC-62,27.9 µM (inactive)
same,GI50,UO-31,29.3 µM (inactive)
same,GI50,XF498,12.4 µM (inactive)
